Legend:
MDA-MB-231 cells = assay: Cell death in autocrine stimulated MDA-MB-231 breast cancer cells; format: cell-based, human; details: 20µM econazole; YVAD-CHO 10 or 100 µM, ionomycin 0.1 nM to 1 µM, oleic acid 10 or 100 µM
Method: Bar 1: control; Bar 2: 20µM econazole; Bar 3: 20µM econazole and 10µM YVAD-CHO (ICE inhibitor); Bar 4: 20µM econazole and 100 µM YVAD-CHO; Bar 5: 20µM econazole and 0.1 nM ionomycin (calcium ionophore); Bar 6: 20µM econazole and 10 nM ionomycin; Bar 7: 20µM econazole and 1 µM ionomycin; Bar 8: 20µM econazole and 10 µM oleic acid (PLC activation inhibitor); and Bar 9: 20µM econazole and 100 µM oleic acid.
(§1) Cells. Bone marrow derived mast cells (BMMC) were generated as described previously (Berger et al., 1994). They were cultured in OPTI-MEM (Gibco, Burlington, ON) supplemented with 10% heat-inactivated FBS and 2% WEHI-3 supernatant as a source of IL-3. 32D-kit cells (gift from Dr. Mark Minden, Ontario Cancer Institute) are an IL-3-dependent myelomonocytic cell line expressing c-kit (Hu et al., 1995). 32D-kit cells were grown in RPMI (Gibco) supplemented with 10% heat-inactivated FBS, 2% WEHI-3 supematant, and 1 mg/ml G418 (Gibco). The p815 cell line is a murine mastocytoma cell line. P815 cells were grown in RPMI supplemented with 10% heat-inactivated FBS. Bcl-2 gp+e NIH 3T3 packaging cells were grown in Dulbecco's modified Eagle's medium (DMEM - Gibco) and supplemented with 10% FBS and 2 µg/ml puromycin (Sigma, St. Louis, Mo). All cell cultures also contained 55µM β-mercaptoethanol and antibiotics (both Sigma). SK-BR3, MDA-MB231 and MCF-7 cells were obtained from ATCC. SK-BR3 and MDA-MB231 cells were cultured in RPMI medium supplemented with 10% heat inactivated fetal bovine serum. MCF-7 cells were cultured in DMEM medium supplemented with 10% heat inactivated fetal bovine serum and 10 µg/ml human insulin (Sigma).
The MDA-MB-231 cell line is a highly anaplastic carcinoma of the breast. it too is tumorigenic in nude mice but expresses only low levels of erbB2. However it is FGF^R positive and is stimulated in an autocrine fashion by bFGF (el Yazidi et al., 1995). Experiments were carried out to determine the susceptibility of MDA-MB-231 cells to a Ca^2+ influx blocker and the influence of oleic acid, ionomycin, and YVAD-CHO on induction of cell death by the blocker. The results are summarized together in Figure 9B.

32D-kit cells = assay: Cell death assay (Trypan blue exclusion) in 32D-kit cells; format: cell-based
Method: Figures 2A and 2B show induction of cell death in 32D-kit or p815 cells with SLF plus Ca^2+ influx blockers. 32D-kit (Figure 2A) or p815 (Figure 2B) cells were incubated with either SLF (solid bars) or IL-3 (striped bars) plus the indicated concentration of Ca^2+ influx blocker. Cell death was determined by Trypan Blue exclusion after 18 hours in culture.
32D-kit cells were incubated for 18 hours with SLF and 5µM econazole and oleic acid (solid bars), or with SLF and 5µM econazole and elaidic acid (hatched bars), or IL-3 and 5 µM econazole and oleic acid (stippled bars). The proportion of dead cells was determined by Trypan Blue exclusion.
(§2) Figures 6A and 6B show the effect of ionomycin on apoptosis induced by SLF and Ca^2+ influx blacker. In Figure 6A, 32D-kit cells were incubated for 18 hours with 5µM econazole and the indicated amounts of ionomycin in the presence of either SLF (circles) or IL-3 (squares). In Figure 6B, 32D-kit-Bcl-2 cells were incubated for 18 hours with 5µM econazole and the indicated amounts of ionomycin in the presence of either SLF (circles) or IL-3 (squares). The proportion of dead cells was determined by Trypan Blue exclusion.
(§3) In additional cultures, IL-3 alone or no factor was added and cell viability was similarly tested. The effect on cell viability of adding 25 or 250 µM YVAD-CHO was also evaluated in separate cultures in which no additional factors were added.
32D-kit cells were incubated with either SLF in the absence of YVAD-CHO (circles), or with SLF in the presence of 25 µM YVAD-CHO. (triangles), or IL-3 (squares) with the indicated amounts of econazole. The proportion of dead cells was evaluated by Trypan Blue exclusion after 18 hours in culture
as §1
(§4) Cell death assays. 2.5 X 10^4 BMMCs, 32D-kit or P815 cells were placed in 96-well flat bottom plates in a volume of 0.1 ml RPMI containing 0.5% FBS. Cells were supplemented with either SLF, Substance P or IL3 plus Ca^2+ channel blocker. In the case of adding IgE, cells were incubated with 10 µg/ml SPE-7 for 45 minutes at 4°C followed by 3 washes with RPMI, 0.5% FBS before plating in 96 well plates and adding 100 ng/ml DNP-HSA. The proportion of dead cells was determined after 18 or 24 hours in culture by counting cells that could or could not exclude Trypan blue.

32D-kit-Bcl-2 cells = assay: Cell death assay (Trypan blue exclusion) in Bcl-2 over-expressing 32D-kit cells; format: cell-based; details: 5µM econazole, 18 hours, Figure 6B
Method: as §2, §3
Generation of Bcl-2 over-expressing 32D-kit cells. gp + e bcl-2 retroviral producer cells were a gift from Dr. Y. Ben-David (Toronto) and contain an LXSN-based retroviral vector expressing genes for both puromycin resistance and murine bcl-2. For infection, a confluent layer of gp + e packaging cells were co-cultured with 32D-kit cells for 24 hours. Non-adherent 32D-kit cells were then removed, cultured for 48 hours and then selected for bcl-2 over-expressing cells in the presence of 2µg/ml puromycin.
as §4

[1] = system: all cells capable of forming colonies in agar in response to IL-3; assay: 32D-kit leukemia in mice, SLF intravenously: all IL-3-dependent spleen colonies in agar; format: in vivo; details: ketotifen 100mg/kg p.o. twice, SLF 15µg intravenously; leukemic as well as normal cells
Method: Figure 11B is similar to Figure 11A, but in this case spleen cells were assayed for the presence of all cells capable of forming colonies in agar in response to IL-3, to include leukemic as well as normal cells.
(§5) Mice. For the in vivo 32D-kit experiments, mice were male C3H/ he mice 6 to 8 weeks old and obtained from Charles River Laboratories, Boston, Massachusetts. Mice were inoculated intravenously with 1 x 10^7 leukemic cells. Between 3 and 5 weeks following the inoculation, mice were given 100 mg/kg ketotifen (Sigma) in a volume of 0.4 ml water by oral gavage, Following the first ketotifen treatment, mice were injected intravenously or subcutaneously with 15 µg SLF in PBS. A second ketotifen treatment followed administration of SLF.
(§6) In order to determine the efficacy of the combination of a Ca^2+ influx blocker with an activating signal in vivo, mice inoculated with factor-dependent and G418-resistant 32D-kit leukemia cells were treated with a combination of ketotifen and SLF. […] The number of G418-resistant colonies detected in animals that were injected with SLF only tended to be higher than those not receiving the factor, varying between 65 and 31,000 with an arithmetic average of 7,399, and a geometric mean of 1,545 colonies/spleen. […]

32D-kit leukemia cells = assay: 32D-kit leukemia in mice, SLF intravenously: G418-resistant spleen colonies in agar; format: in vivo
Method: Mice were inoculated intravenously with 1 X 10^7 G418-resistant 32D-kit cells. Between 3 and 5 weeks following the inoculation (Experiments 1 & 3; 5 weeks, experiment 2; 3 weeks), mice were given 100mg/kg ketotifen by oral gavage. Four hours following the ketotifen treatment, mice were injected with 15µg SLF intravenously. Two hours later the mice were given a further 100mg/kg ketotifen p.o. The following day, spleens were removed and assayed for the presence of leukemic cells by plating cells in 0.3% agar in growth medium containing 20% WEHI-3 conditioned medium and 1 mg/ml G418 to limit detection to the G418-resistant leukemic cells. Seven days later, colonies were enumerated.
as §5
as §6, with “SLF. In one set of experiments, spleen cells were removed and assayed for the presence of leukemic cells by plating cells in agar in growth medium containing 20% WEHI-3 conditioned medium and 1mg/ml G418 to limit detection to the G418-resistant leukemic cells.” for “SLF.”

[2] = system: Bone marrow derived mast cells (BMMC); assay: Cell death assay (Trypan blue exclusion) in BMMC; format: cell-based; details: 24 hours
Method: Cytotoxicity assays were performed as described in Materials and Methods. In Figures 1A to 1C, BMMCs were incubated with either SLF (500ng/ml in all cases) (circles) or IL-3 (25% WEHI-3 conditioned medium in all cases) (squares) with the indicated amounts of ketotifen (Figure 1A), econazole (Figure 1B) or Ni^2+ (Figure 1C). In Figure 1D, BMMCs were incubated with IL-3, and the indicated amounts of SLF. Plotted circles also included 2.5mM Ni^2+ and plotted squares included no Ni^2+. In Figure 1E, BMMCs were coated with IgE anti-DNP monoclonal SPE-7, then incubated with IL-3 plus the indicated amounts of DNP-HSA (Ag), with 5µM econazole (circles) or without econazole (squares). In Figure 1F, BMMCs were incubated with IL-3 plus the indicated amounts of Substance P, with 5µM econazole (circles) or without econazole (squares). In all cases, the proportion of dead cells was determined after 24 hours in culture by counting cells that could or could not exclude Trypan blue. Error bars represent the standard error determined from triplicate measurements.
as §1, §4

[3] = SLF and 5µM econazole, 18 hours
[4] = ketotifen 100mg/kg p.o. twice, SLF 15µg intravenously, spleens next day
[5] = co-incubated with SLF (500ng/ml), Figures 1A-C
[6] = stimulated with IgE plus antigen (DNP-HSA), with IL-3, 5µM econazole in Figure 1E

YVAD-CHO
protection from death induced by the Ca^2+ influx blocker (MDA-MB-231 cells): can protect | resistance to apoptosis induced by SLF plus econazole (32D-kit cells; 25 µM YVAD-CHO, 18 hours, Figure 8): provides resistance | protection from apoptosis induced by factor withdrawal (32D-kit cells; 25 or 250 µM YVAD-CHO, Figure 7B): fails to protect | protection from apoptosis induced by the topoisomerase inhibitor etoposide (32D-kit cells; not shown): protects

CCCCCCCC/C=C/CCCCCCCC(=O)O [elaidic acid, trans-9-octadecenoic acid]
rescue/protection from cell death induced by SLF and Ca^2+ influx blocker (32D-kit cells; [3]): not

C[C@H](CCC(=O)O)C[C@H](C)C[C@H](C)C(=O)/C=C(\O)[C@H](C)C[C@H](C)C/C=C/[C@@H](C)[C@@H](O)[C@@H](C)[C@@H](O)C[C@@H]1CC[C@@](C)([C@H]2CC[C@@](C)([C@@H](C)O)O2)O1 [ionomycin]
protection from death induced by the Ca^2+ influx blocker (MDA-MB-231 cells): can protect | cell death at higher levels of ionomycin (32D-kit-Bcl-2 cells): did not demonstrate significant cell death | protection from apoptosis by SLF plus blocker (32D-kit-Bcl-2 cells; low levels of ionomycin): similarly protected from apoptosis | cell death at higher concentrations of ionomycin (32D-kit cells; [3]): restoration of cell death | rescue/protection from cell death induced by SLF and Ca^2+ influx blocker (32D-kit cells; [3]): protects | concentration of maximal protection (32D-kit cells; SLF and 5µM econazole, 18 hours, Figure 6A): 10 nM

COc1ccc(CCN(C)CCCC(C#N)(c2ccc(OC)c(OC)c2)C(C)C)cc1OC (stereo not drawn) [verapamil]
inducing cell death (32D-kit cells; combined with SLF, not shown, cell type not stated): ineffective in inducing cell death

CN1CCC(=C2c3ccccc3CC(=O)c3sccc32)CC1 [ketotifen]
IL-3-dependent colonies, arithmetic average [1]: 7,715 colonies/spleen | IL-3-dependent colonies, geometric mean [1]: 2,320 colonies/spleen | activity on the leukemic cells in vivo (32D-kit leukemia cells; SLF intravenously): little activity | G418-resistant colonies, arithmetic average (32D-kit leukemia cells; [4]): 5,502 colonies/spleen | G418-resistant colonies, geometric mean (32D-kit leukemia cells; [4]): 849 colonies/spleen | cell death [2, 5]: converted to a death signal | cell death [2, 6]: combine with IgE receptor cross-linking to induce cell death

CCCCCCCC/C=C\CCCCCCCC(=O)O [oleic acid, cis-9-octadecenoic acid]
protection from death induced by the Ca^2+ influx blocker (MDA-MB-231 cells): can protect | range of effectiveness (rescue from cell death) (32D-kit cells; [3]): 1 to 100 µM | rescue/protection from cell death induced by SLF and Ca^2+ influx blocker (32D-kit cells; [3]): rescued from cell death

[Ni+2] [Ni^2+]
cell death [2, 5]: converted to a death signal | cell death [2, 6]: combine with IgE receptor cross-linking to induce cell death

From patent EP0873137B1, “COMPOSITIONS INCLUDING CALCIUM INFLUX BLOCKERS FOR INHIBITING CELL GROWTH” (The Wellesley Hospital Foundation, priority 1996, dated 1997)
